Molecular target: T1, Neutrophil elastase (Homo sapiens, UniProt P08246)
T1 sequence (P08246 whole entry): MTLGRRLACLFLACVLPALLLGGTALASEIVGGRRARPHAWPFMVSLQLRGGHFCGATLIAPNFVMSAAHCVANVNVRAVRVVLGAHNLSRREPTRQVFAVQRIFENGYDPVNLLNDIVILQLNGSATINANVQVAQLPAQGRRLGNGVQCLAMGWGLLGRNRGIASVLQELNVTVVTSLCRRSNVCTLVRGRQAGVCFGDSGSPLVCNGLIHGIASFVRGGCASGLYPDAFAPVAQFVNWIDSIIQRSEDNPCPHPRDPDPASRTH
Experiment: Inhibition of human neutrophil elastase

Row | Compound | IC50 [µM]
1 | CC1(C)C2CC[C@]1(C)C(OC(=O)/C=C/c1ccc(O)c(O)c1)C2 (some centres not stated) | 1.56
2 | CC1(C)C2CC[C@]1(C)C(OC(=O)/C=C/c1cc(O)c(O)c(O)c1)C2 (some centres not stated) | 0.54

— ChEMBL document CHEMBL1144036, “Bornyl (3,4,5-trihydroxy)-cinnamate--an optimized human neutrophil elastase inhibitor designed by free energy calculations” (Bioorg Med Chem, 2008)
